This is an account of results in patent publication EP0308781A2, “Antimycotic preparations” (BAYER AG, priority 1987, dated 1989).

The assay deals with Candida-Zellen. Description: Antimycotic in vivo efficacy (oral) in mouse candidosis. The arrangement: species or system Mäuse vom Typ SPF-CF1; key to Wirkung: + + + + +: sehr gute Wirkung = 90 % Überlebende am 6.Tag.p.i.; + + + +: gute Wirkung = 80 % Überlebende am 6.Tag.p.i.; + + +: Wirkung = 60 % Überlebende am 6.Tag.p.i.; + +: schwache Wirkung = 40 % Überlebende am 6.Tag.p.i.; +: Spur Wirkung = unter 40 % Überlebende am 6. Tag p.i.; k.W.: kein Unterschied zur unbehandelten Infektionskontrolle. The settings on record: for Wirkung: mice infected i.v. with 1 - 2 x 10^6 Candida cells, oral treatment with 10 - 100 mg/kg each, one hour before and seven hours after infection, survivors on day 6 p.i. The procedure: Antimykotische in-vivo-Wirksamkeit (oral) bei Mäusecandidose
Mäuse vom Typ SPF-CF1 wurden intravenös mit […] logarithmisch wachsenden Candida-Zellen, die in physiologischer Kochsalzlösung suspendiert werden, infiziert. Eine Stunde vor und sieben Stunden nach der Infektion werden die Tiere mit jeweils 10 - 100 mg/kg Körpergewicht der Präparate oral behandelt.
Unbehandelte Tiere starben 3 bis 6 Tage post infektionem. Die Überlebensrate am 6.Tag post infektionem betrug bei unbehandelten Kontrolltieren etwa 5 %.

With `OC(Cn1cncn1)(c1ccc(Cl)cc1)C1(F)CC1` (stereo not shown) [(A)], the Wirkung entry is reported as “k.W”. On to `OC(Cc1ccc(F)cc1)(Cn1cncn1)C1(Cl)CC1` (stereo not shown) [(I-1), 1-(4-Fluorphenyl)-2-(1-chlor-cyclopropyl)-3-(1,2,4-triazol-1-yl)-propan-2-ol], for which the Wirkung entry is “+ + + + + (sehr gute Wirkung = 90 % Überlebende am 6.Tag.p.i.)”. Moreover, the “Wirkung (comparison with known compounds)” value (oral, mouse candidosis, statement in words, compared with (A) and (B)) is “bessere Wirkung”.

Take `OC(Cn1cncn1)(c1ccccc1)C1(F)CC1` (stereo not shown) [(B)]: the Wirkung result is on record as “k.W”.
